Activity calls are given as the source filed them. How the calls were made is not given here.
Test system: T. cruzi-infected H9C2 cardiomyocytes, high-content imaging
Test: intracellular T. cruzi amastigote inhibition, imaging, H9C2 host cardiomyocytes, host toxicity (AID 1159565);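 further: infected cells incubated 72 h after plating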
[1] = measured here: H9C2 host cell toxicity
[2] = measured here: amastigotes per cell

Row | Compound | IC50 | IC50 [1] [nM] | IC50 [2] [nM]
1 | CC(C)C[C@H](NC(=O)c1csc(-c2cccs2)n1)C(=O)NC1(C#N)CC1 | > 50000 nM (inactive) | > 50000 | 20000
2 | CC(=O)Nc1nc(-c2cc(C)ccc2C)c(C)s1 | 200 nM | > 50000 | 160
3 | Cc1ccccc1CNC(=O)CN(Cc1ccccn1)Cc1ccccn1 | 16000 nM | > 79000 | 6300
4 | Clc1ccc(Sc2cnccc2N2CCOCC2)cc1 | 130 nM | > 50000 | 100
5 | CN(C)Cc1cccc(Nc2nccc(-c3ccc(NCCN)c(C#N)c3)n2)c1 | 10000 nM | 2000 | 1600
6 | Cc1c([N+](=O)[O-])c(C(=O)Nc2sc3c(c2C#N)CCC(C)C3)nn1C (stereo not drawn) | 2500 nM | > 50000 | 1600
7 | CN(C)S(=O)(=O)c1ccc(-c2cnc(N)c(-c3nc4ccc(F)cc4[nH]3)c2)cc1 | > 50000 nM (inactive) | 1300 | > 50000
8 | O=C(c1ccc(Cl)cc1)c1ccc(OC(=O)N2CCOCC2)cc1 | > 50000 nM (inactive) | > 50000 | 6300
9 | O=C(Nc1ccc(-c2nc3ccccc3c(=O)[nH]2)cc1)c1cccs1 | > 50000 nM (inactive) | > 50000 | > 50000
10 | CCc1cccc(CC)c1-n1c(SCC(=O)NC(=O)NCc2ccco2)nnc1-c1cccnc1 | 13000 nM | > 50000 | 7900
11 | N#Cc1cccc(CNc2ccc(-c3cnn(CC4CC4)c(=O)c3C#N)cc2)c1 | 7900 nM | > 50000 | 5000
12 | Nc1nc(-c2ccccn2)nc(N)c1Cc1c(F)cccc1Cl | 2000 nM | 1300 | 1600
13 | CC(C)(C)CC(=O)NCCc1csc(-c2ccc(F)cc2)n1 | 1000 nM | > 50000 | 790
14 | c1ccc2c(CCOc3nccnc3-c3ccncc3)c[nH]c2c1 | 160 nM | > 50000 | 160
15 | O=C(Nc1ccc(C(=O)N2CCCC2c2ccc3c(c2)OCCCO3)cc1)c1ccco1 (stereo not drawn) | 1000 nM | > 50000 | 630
16 | CC(C)CC(=O)Nc1cc(C2CC2)nn1-c1nc2c(c(=O)[nH]1)CCCC2 | 500 nM | 2500 | 130
17 | CCOc1ccc2nc(NC(=O)c3ccc([N+](=O)[O-])s3)sc2c1 | 1300 nM | 10000 | 1000
18 | CCN(Cc1ccncc1)Cc1ccc(NC(=O)c2cc(-c3ccc(F)cc3)n[nH]2)cc1 | 250 nM | > 50000 | 250
19 | N#Cc1ccccc1S(=O)(=O)N1CCN(C(=O)CNC(=O)c2ccc3c(c2)OCO3)CC1 | 1000 nM | > 50000 | 630
20 | COc1ccc(NS(=O)(=O)c2cc(-c3cc(C)[nH]n3)ccc2C)cc1OC | 2000 nM | > 50000 | 1300
21 | COc1cc(Nc2nccc(Nc3onc(C)c3C)n2)cc(S(=O)(=O)C2CCOCC2)c1 | 25000 nM | 10000 | 13000
22 | CC(=Cc1ccccc1)CN1CCC(=O)N(Cc2cccnc2)CC1 | 500 nM | > 50000 | 500
23 | CNc1c(C(N)=O)c(-c2ccc3scnc3c2)nn1CC(F)(F)F | 250 nM | > 50000 | 160
24 | O=S(=O)(NCC(c1cccnc1)N1CCN(c2ccc(F)cc2)CC1)c1cccs1 (stereo not drawn) | 130 nM | > 50000 | 130

Row | Compound | IC50 | IC50 [1] [nM] | IC50 [2] [nM]
25 | CC(C)Oc1cccc(N2CCC(C(=O)N3CCCN(C(C)C)CC3)CC2)c1 | 630 nM | > 50000 | 250
26 | COc1cccc(-c2c(C)nn(-c3nc(N)nc(-c4ccccn4)n3)c2N)c1 | 2000 nM | > 50000 | 500
27 | O=C(CN1CCN(c2ccccn2)CC1)Nc1cc(S(=O)(=O)N2CCCCCC2)ccc1Cl | 7900 nM | > 50000 | 6300
28 | NC(=O)c1ncc(N[C@@H]2CCCNC2)nc1Nc1cccc(Cl)c1 | 400 nM | 1300 | 250
29 | NS(=O)(=O)c1ccc(Nc2ncc3cccc(OC4CCNCC4)c3n2)cc1 | 50 nM | 630 | 20
30 | O=C(c1cccc(Nc2ncc(-c3ccc4c(c3)OCO4)cn2)c1)N1CCSC1 | 250 nM | 1000 | 200
31 | CC1(C)CCC(=Cc2ccc(Cl)cc2)CC1(O)Cn1ccnc1 (stereo not drawn) | 7.9 nM | 32000 | 5
32 | NCc1ccc2c(Cl)cc(Cl)c(O)c2n1 | 2000 nM | 6300 | 1300
33 | CCS(=O)(=O)Nc1ccc(C2=NN(C(=O)c3cccs3)C(c3ccccc3OC)C2)cc1 (stereo not drawn) | > 50000 nM (inactive) | > 50000 | > 50000
34 | COc1cc(F)c2ncc(F)c(CCN3CC[C@H](NCc4cc5c(cn4)OCS5)[C@@H](O)C3)c2c1 | 250 nM | > 50000 | 200
35 | Cc1ccccc1NS(=O)(=O)c1ccc2[nH]cc(C(=O)NC3CCCC3)c(=O)c2c1 | 32000 nM | 20000 | 25000
36 | CC1(Oc2cncc(Cl)c2)CCN(Cc2cc3ccccc3[nH]2)C1 (stereo not drawn) | 1600 nM | 10000 | 1000
37 | O=C(Nc1nc2ccccc2[nH]1)c1ccc2nc[nH]c2c1 | > 50000 nM (inactive) | > 50000 | 50000
38 | Cc1nc2c(-c3ncn[nH]3)cc(NC(=O)Cc3ccccc3)cn2c1C | 1000 nM | 6300 | 790
39 | COc1ccc(-c2cnc(C)o2)cc1S(=O)(=O)Nc1ccc(C)cc1C | 3200 nM | > 50000 | 3200
40 | Cn1cc(CN2CCN(c3ccc4c(c3)CCN(C(=O)[C@H]3C[C@@H]3c3ccccc3)CC4)CC2)cn1 | 3200 nM | 32000 | 790
41 | O=C(NCC1CCCCC1)c1cnns1 | 3200 nM | > 50000 | 2000
42 | CCOc1ccc(N(C)S(=O)(=O)c2ccc3[nH]cc(C(=O)NC4CCCC4)c(=O)c3c2)cc1 | > 50000 nM (inactive) | > 50000 | 6300
43 | Cc1c(C(C)NC(=O)Nc2cccc(Cl)c2)sc2ncnn12 (stereo not drawn) | 200 nM | > 50000 | 160
44 | Cc1ccc2sc(NC(=O)Cn3cnc([N+](=O)[O-])n3)nc2c1 | 4000 nM | > 50000 | 500
45 | COc1cnc2ccc(=O)n(CCN3CCC(NC(=O)Cc4ccc(Cl)c(Cl)c4)CC3)c2c1 | 400 nM | 6300 | 160
46 | Cc1cc(Br)sc1CNCCCNc1cc(=O)c2ccccc2[nH]1 | 790 nM | 25000 | 500
47 | O=S(=O)(c1cccc(CSc2nnc(-c3ccc4c(c3)OCO4)o2)c1)N1CCOCC1 | 100 nM | 25000 | 40
48 | CN(Cc1nc2c(C(=O)N3CCN(Cc4ccccc4)CC3)cccc2[nH]1)C1CCCc2cccnc21 (stereo not drawn) | 500 nM | 7900 | 500

Row | Compound | IC50 | IC50 [1] [nM] | IC50 [2] [nM]
49 | CNS(=O)(=O)c1ccccc1Nc1nc(Nc2ccnn2C)ncc1Cl | 1000 nM | 160 | 630
50 | COc1ccc(CN2CCCCC2c2nc(-c3cccnc3)no2)cc1 (stereo not drawn) | 790 nM | > 50000 | 630
51 | Cn1c(CN2CCN(c3ncc(C(F)(F)F)cc3Cl)CC2)nc2ccncc21 | 1000 nM | > 50000 | 1000
52 | FC(F)(F)c1cc(C2CCCN(Cc3c[nH]c4ccccc34)C2)nc2ncnn12 (stereo not drawn) | 10000 nM | > 50000 | 6300
53 | Cc1c(Nc2cc(C3CC3)[nH]n2)ccc(C#N)c1Cl | 25000 nM | 10000 | 16000
54 | Cc1ccc(Nc2nc(C3CCCN3Cc3ccn[nH]3)cs2)nc1 (stereo not drawn) | 2000 nM | 10000 | 2000
55 | COc1ccc(C2CC(c3ccccc3Cl)=NN2C(=O)CNC(=O)C2CCC2)cc1 (stereo not drawn) | 1600 nM | > 50000 | 1000
56 | O=C(NNC(=O)c1ccccn1)c1ccc(-c2ccccc2)cc1 | 1600 nM | 2000 | 1300
57 | CC(C)N(C(=O)CN1C(=O)C(N)C(=O)N(c2ccccc2)c2ccccc21)c1ccccc1 (stereo not drawn) | 320 nM | > 50000 | 400
58 | Cc1ccc2c(c1)-c1onc(C(=O)N3CCCCC3c3cccnc3)c1CO2 (stereo not drawn) | 130 nM | > 50000 | 130
59 | Cc1[nH]nc(Nc2ccnc3[nH]ccc23)c1C | > 50000 nM (inactive) | > 50000 | > 50000
60 | O=C(CSc1nnc2ccc(-c3ccc(F)cc3)nn12)N1CCCCC1 | 2000 nM | > 50000 | 1000
61 | CNc1cncc(C2CCCN2C(=O)Cc2coc3cc(C)ccc23)n1 (stereo not drawn) | 200 nM | > 50000 | 200
62 | O=C(NCC(c1cccs1)N1CCOCC1)c1ccc([N+](=O)[O-])o1 (stereo not drawn) | 16000 nM | 5000 | 16000
63 | COc1ccc(OC)c(S(=O)(=O)N(Cc2c(F)cccc2F)[C@@H]2CCN(C#N)C2)c1 | 13000 nM | 16000 | 6300
64 | OCCCNc1nc(Nc2ccncc2)nc2ccccc12 | 1300 nM | > 50000 | 200
65 | O=C(Nc1cccc(Cl)c1)Nc1ccc([N+](=O)[O-])cc1Cl | 2000 nM | 4000 | 1600
66 | COc1ncc(-c2ccc3ncnc(N4CCOCC4)c3c2)cc1NS(C)(=O)=O | 6300 nM | 1600 | 2500
67 | O=C(Nc1ccc(S(=O)(=O)N2CCCC2)cc1)c1ccc([N+](=O)[O-])s1 | 200 nM | 1600 | 200
68 | CC(C)(C)c1csc(NC(=O)c2ccc([N+](=O)[O-])s2)n1 | 320 nM | 13000 | 200
69 | CC(Cn1ccnc1)NC(=O)C1CC1c1cccc(Cl)c1Cl (stereo not drawn) | 250 nM | > 50000 | 200
70 | C=CCN(Cc1cccs1)C(=O)CSc1nnc(-c2ccc3c(c2)OCO3)o1 | 630 nM | > 50000 | 500
71 | O=C(N[C@H](CO)c1ccccc1)c1ccc(-c2c[nH]c3nccc(C(F)(F)F)c23)s1 | 10000 nM | 13000 | 10000

Source: PubChem BioAssay AID1159565 (GlaxoSmithKline (GSK), 2015)
